Assay results published in patent publication US20140171490A1, “Method and Device for Ophthalmic Administration of Active Pharmaceutical Ingredients” (PHARMALIGHT INC., priority 2005, published 2014).
Where two headings read alike, the source gives them in different places.

Assays:
beta-adrenoceptor = conditions: cited from earlier work
[1] = test system: human corneal epithelial cells; conditions: reported in Burgalassi et al. Tox. Lett. 2001; cited from earlier work
eye = conditions: cited from earlier work
[2] = parameters: species or system Lewis female rats; conditions: rat, in vivo
Procedure: Animal studies were carried out on Lewis female rats (6-8 weeks of age) from Harlan Laboratories Inc. (Rehovot, Israel). In some cases as noted below, the rats were anesthetized with ketamin/xylazine […].
ELISA tests were performed using commercially available ELISA kits from Assay Designs (Ann Arbor, Mich., USA) in accordance with the manufacturer's instructions in the usual way in conjunction with a BioTek EL-310 plate reader (Cambridge Scientific Products, Cambridge, Mass., USA).
Pharmaceutical compositions were administered by instillation in the eyes of rats or administered as a mist using the nebulization device described above at a rate of 10 μl minute^−1. Subsequent to administration and a waiting time, the rats were sacrificed.
Subsequent to sacrifice, serum, cerebrospinal fluid (CSF, 50-100 μl), retina, optic nerve, sclera, and aqueous humor (AH) of an animal were harvested. The retina, optic nerve, and sclera of each animal was individually homogenized in 120 ul assay buffer on ice and centrifuged. The serum, CSF, AH and the homogenized retina, optic nerve and sclera were assayed for the presence of leptin using ELISA.
Data below is expressed as pg ml^−1 for serum, CSF and AH and as pg mg^−1 for tissue (determined using the Lowry method). […]

[3] = reported in Saettone et al. Int. J. Pharma. 1996

In the case of `CC(C)(C)NCC(O)COc1cccc2c1CCCC2=O.Cl` (single isomer, unassigned; (-)) [Levobunolol, (−)-5-[3-(tert-Butylamino)-2-hydroxypropoxy]-3,4-dihydro-1(2H)-naphthalenone hydrochloride], the “potency in beta-blocking activity relative to its dextro isomer” value (beta-adrenoceptor) is given as “greater than 60 times”.
For `CCCCCCCCCCCCCCCC[n+]1ccccc1` [cetylpyridinium chloride], the “toxicity to human corneal epithelial cells relative to Brij-78 and EDTA” value [1] is given as “less toxic to human corneal epithelial cells than Brij-78 but more toxic than EDTA”.
For `C[C@@H]1CC[C@@]2(OC1)O[C@H]1[C@@H](O)[C@H]3[C@@H]4CC[C@H]5C[C@@H](O[C@@H]6O[C@H](CO)[C@H](O[C@@H]7O[C@H](CO)[C@@H](O)[C@H](O[C@@H]8OC[C@@H](O)[C@H](O)[C@H]8O)[C@H]7O[C@@H]7O[C@H](CO)[C@H](O)[C@H](O[C@@H]8O[C@H](CO)[C@@H](O)[C@H](O)[C@H]8O)[C@H]7O)[C@H](O)[C@H]6O)[C@H](O)C[C@]5(C)[C@H]4CC[C@]3(C)[C@H]1[C@@H]2C` [digitonin], the “irritation to the eye” value (eye; [3]) is listed as “strongly irritating to the eye”.
For `CC(=O)O[C@H]1C[C@@]2(C)[C@@H](C[C@@H](O)[C@H]3[C@@]4(C)CC[C@@H](O)[C@@H](C)[C@@H]4CC[C@@]32C)/C1=C(\CCC=C(C)C)C(=O)O` [sodium fusidate], the “irritation to the eye” value (eye; reported in Furrer et al. AAPS PharmSci 2002) is given as “strongly irritating to the eye”.
In the case of BL-9, the “irritation to the eye” value (eye; [3]) is listed as “strongly irritating to the eye”.
For Brij-99, the “irritation to the eye” value (eye; reported in Morgan, J. Ocular Pharm. Ther. 1995) is given as “strongly irritation to the eye”.
For benzalkonium chloride, the “irritation to the eye” value (eye; [3]) is given as “strongly irritating to the eye” and the “toxicity to human corneal epithelial cells relative to Brij-78 and EDTA” value [1] is given as “less toxic to human corneal epithelial cells than Brij-78 but more toxic than EDTA”.
For leptin, the “leptin concentration in optic nerve and sclera relative to retina” value [2] was “markedly higher than in the retina”.
